Experimental data reported in ChEMBL document CHEMBL4043215, “Synergistic antiproliferative effect of chemo-phototherapy: Synthesis and photodynamic activity evaluation of novel Chlorin e6-artesunate conjugates as antiproliferative agents” (Bioorg Med Chem Lett, 2017).
pIC50: −log10 of the molar value. Active and inactive are the calls of the source. The rule behind the calls is not given here.

What was measured:
[1] = Dark toxicity against human HepG2 cells assessed as reduction in cell viability incubated overnight by MTT assay; type: cell-based
HepG2 [2] = assay: Phototoxicity against human HepG2 cells assessed as reduction in cell viability preincubated overnight followed by irradiation with LED light at 1.7 J/cm'2 for 10 mins measured post overnight incubation by MTT assay; type: functional, cell-based; conditions: HepG2, light or radiation study
HepG2 [3] = assay: Phototoxicity against human HepG2 cells assessed as reduction in cell viability up to 100 uM irradiated with LED light at 1.7 J/cm'2 measured after 12 hrs by MTT assay; type: functional, cell-based
HepG2 [4] = assay: Induction of intracellular ROS production in human HepG2 cells at 30 uM incubated for 10 hrs followed by DCF-DA addition for 20 mins in dark and irradiated with LED light at 1.7 J/cm'2 by fluorescence assay; type: functional, cell-based
[5] = Induction of singlet oxygen production in Tris-Hcl buffer after irradiation with LED light at 1.7 J/cm'2 at 100 uM at pH 7.4 by ATTA-Eu3+ probe based fluorescence microscopy
[6] = Drug uptake in human HepG2 cells at 30 uM measured up to 10 hrs by fluorescence assay; type: ADME, cell-based; conditions: hepg2, 10 h

| SMILES | pIC50 [1] | pIC50 (HepG2 [2]) | Activity (HepG2 [3]) | Activity (HepG2 [4]) | Activity [5] | Drug uptake [6] |
| --- | --- | --- | --- | --- | --- | --- |
| C[C@H]1[C@H](OC(=O)CCC(=O)O)O[C@@H]2O[C@@]3(C)CC[C@H]4[C@H](C)CC[C@@H]1[C@@]24OO3 [ARTESUNATE] | 5.19 | 5.11 | Active | Active | – | – |
| C=Cc1c(C)c2cc3nc(c(CC(=O)NCCNC(=O)CCC(=O)O[C@@H]4O[C@@H]5O[C@@]6(C)CC[C@H]7[C@H](C)CC[C@@H]([C@H]4C)[C@@]57OO6)c4[nH]c(cc5nc(cc1[nH]2)C(C)=C5CC)c(C)c4C(=O)O)[C@@H](CCC(=O)O)[C@@H]3C | 4.24 | 5.62 | Active | Active | Active | Active |
| C=Cc1c(C)c2cc3nc(c(CC(=O)O)c4[nH]c(cc5nc(cc1[nH]2)C(C)=C5CC)c(C)c4C(=O)NCCNC(=O)CCC(=O)O[C@@H]1O[C@@H]2O[C@@]4(C)CC[C@H]5[C@H](C)CC[C@@H]([C@H]1C)[C@@]25OO4)[C@@H](CCC(=O)O)[C@@H]3C | 4.44 | 5.74 | Active | Active | Active | Active |
| C=Cc1c(C)c2cc3nc(c(CC(=O)NCCNC(=O)CCC(=O)O[C@@H]4O[C@@H]5O[C@@]6(C)CC[C@H]7[C@H](C)CC[C@@H]([C@H]4C)[C@@]57OO6)c4[nH]c(cc5nc(cc1[nH]2)C(C)=C5CC)c(C)c4C(=O)NCCNC(=O)CCC(=O)O[C@@H]1O[C@@H]2O[C@@]4(C)CC[C@H]5[C@H](C)CC[C@@H]([C@H]1C)[C@@]25OO4)[C@@H](CCC(=O)NCCNC(=O)CCC(=O)O[C@@H]1O[C@@H]2O[C@@]4(C)CC[C@H]5[C@H](C)CC[C@@H]([C@H]1C)[C@@]25OO4)[C@@H]3C | 4.89 | 6.10 | Active | Active | inactive | Active |
| C=Cc1c(C)c2cc3nc(c(CC(=O)O)c4[nH]c(cc5nc(cc1[nH]2)C(C)=C5CC)c(C)c4C(=O)O)[C@@H](CCC(=O)NCCNC(=O)CCC(=O)O[C@@H]1O[C@@H]2O[C@@]4(C)CC[C@H]5[C@H](C)CC[C@@H]([C@H]1C)[C@@]25OO4)[C@@H]3C | 4.54 | 5.82 | Active | Active | Active | Active |
| C=CC1=C(C)/C2=C/C3=NC(=C(/CC(=O)NCCNC(=O)OC(C)(C)C)c4[nH]c(c(C)c4C(=O)O)/C=C4\N=C(CC1N2)C(C)=C4CC)/[C@@H](CCC(=O)O)[C@@H]3C (stereo not given in full) | – | – | – | Active | – | Active |
